From article PMC6704710, “Preclinical evaluation of 3D185, a novel potent inhibitor of FGFR1/2/3 and CSF-1R, in FGFR-dependent and macrophage-dominant cancer models” (Journal of Experimental & Clinical Cancer Research : CR, 2019)

Tests used:
Test in all cases: Eurofins kinase panel
Format in all cases: biochemical
Conditions in all cases: read-out: Inhibition rate (%)
Rsk4(h) = target: T1, Rsk4(h) (Homo sapiens, UniProt Q9UK32)
T1 construct: purchased Eurofins (KinaseProfiler)
Protocol: (§1) Active FGFR1–4, VEGFR1, KDR, VEGFR3, PDGFRα and PDGFRβ proteins were purchased from Eurofins (Fremont, United States), and kinase activity was assessed using ELISA, as previously reported. […]. Increasing concentrations of ATP were diluted for the kinase reaction in the ATP competition assay. CSF-1R kinase activity was analyzed using the Z’-LYTE™ Kinase Assay Kit (Thermo Fisher, United States). The assay formats are described in the SelectScreen Kinase Profiling Service Zlyte protocol. IC50 values were calculated by dose-response curve fitting using Prism (Graph Pad).

mTOR/FKBP12(h) = target: T2, mTOR/FKBP12(h) (Homo sapiens, UniProt P42345)
T2 construct: purchased Eurofins (KinaseProfiler)
T2 sequence (P42345 1362-2549 limits assumed): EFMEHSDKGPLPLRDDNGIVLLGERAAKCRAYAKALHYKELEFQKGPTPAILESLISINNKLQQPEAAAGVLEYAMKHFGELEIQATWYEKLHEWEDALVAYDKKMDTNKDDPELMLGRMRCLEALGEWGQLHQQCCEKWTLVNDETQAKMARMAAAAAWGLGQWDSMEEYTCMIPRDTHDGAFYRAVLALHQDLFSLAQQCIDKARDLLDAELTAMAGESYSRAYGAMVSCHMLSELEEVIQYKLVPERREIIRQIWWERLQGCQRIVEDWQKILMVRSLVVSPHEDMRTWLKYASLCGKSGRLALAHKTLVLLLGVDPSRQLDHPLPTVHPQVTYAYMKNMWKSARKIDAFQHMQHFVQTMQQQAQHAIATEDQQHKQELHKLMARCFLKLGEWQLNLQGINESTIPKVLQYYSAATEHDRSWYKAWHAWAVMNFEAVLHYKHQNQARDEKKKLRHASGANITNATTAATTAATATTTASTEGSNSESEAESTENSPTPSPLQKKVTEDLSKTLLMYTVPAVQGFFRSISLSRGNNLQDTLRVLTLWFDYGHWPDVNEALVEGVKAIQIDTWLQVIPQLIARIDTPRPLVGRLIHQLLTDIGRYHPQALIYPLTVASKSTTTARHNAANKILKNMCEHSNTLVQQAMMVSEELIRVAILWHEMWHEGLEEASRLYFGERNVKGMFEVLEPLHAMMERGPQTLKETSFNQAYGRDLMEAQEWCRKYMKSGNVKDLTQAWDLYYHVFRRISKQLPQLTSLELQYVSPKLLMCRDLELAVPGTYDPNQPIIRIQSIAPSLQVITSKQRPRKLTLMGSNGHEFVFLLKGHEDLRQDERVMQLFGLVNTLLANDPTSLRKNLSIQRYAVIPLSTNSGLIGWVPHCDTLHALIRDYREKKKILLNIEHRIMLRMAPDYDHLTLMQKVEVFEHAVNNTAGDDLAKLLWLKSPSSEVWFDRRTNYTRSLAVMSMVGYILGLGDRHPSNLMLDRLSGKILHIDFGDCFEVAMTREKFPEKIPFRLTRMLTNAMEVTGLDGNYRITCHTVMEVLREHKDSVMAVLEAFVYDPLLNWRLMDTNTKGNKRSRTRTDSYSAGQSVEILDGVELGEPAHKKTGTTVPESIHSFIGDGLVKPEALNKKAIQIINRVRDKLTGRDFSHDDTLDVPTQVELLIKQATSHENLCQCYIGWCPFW
Protocol: as §1

EphA1(h) = target: T3, EphA1(h) (Homo sapiens, UniProt P21709)
T3 construct: purchased Eurofins (KinaseProfiler)
T3 sequence (P21709 26-976): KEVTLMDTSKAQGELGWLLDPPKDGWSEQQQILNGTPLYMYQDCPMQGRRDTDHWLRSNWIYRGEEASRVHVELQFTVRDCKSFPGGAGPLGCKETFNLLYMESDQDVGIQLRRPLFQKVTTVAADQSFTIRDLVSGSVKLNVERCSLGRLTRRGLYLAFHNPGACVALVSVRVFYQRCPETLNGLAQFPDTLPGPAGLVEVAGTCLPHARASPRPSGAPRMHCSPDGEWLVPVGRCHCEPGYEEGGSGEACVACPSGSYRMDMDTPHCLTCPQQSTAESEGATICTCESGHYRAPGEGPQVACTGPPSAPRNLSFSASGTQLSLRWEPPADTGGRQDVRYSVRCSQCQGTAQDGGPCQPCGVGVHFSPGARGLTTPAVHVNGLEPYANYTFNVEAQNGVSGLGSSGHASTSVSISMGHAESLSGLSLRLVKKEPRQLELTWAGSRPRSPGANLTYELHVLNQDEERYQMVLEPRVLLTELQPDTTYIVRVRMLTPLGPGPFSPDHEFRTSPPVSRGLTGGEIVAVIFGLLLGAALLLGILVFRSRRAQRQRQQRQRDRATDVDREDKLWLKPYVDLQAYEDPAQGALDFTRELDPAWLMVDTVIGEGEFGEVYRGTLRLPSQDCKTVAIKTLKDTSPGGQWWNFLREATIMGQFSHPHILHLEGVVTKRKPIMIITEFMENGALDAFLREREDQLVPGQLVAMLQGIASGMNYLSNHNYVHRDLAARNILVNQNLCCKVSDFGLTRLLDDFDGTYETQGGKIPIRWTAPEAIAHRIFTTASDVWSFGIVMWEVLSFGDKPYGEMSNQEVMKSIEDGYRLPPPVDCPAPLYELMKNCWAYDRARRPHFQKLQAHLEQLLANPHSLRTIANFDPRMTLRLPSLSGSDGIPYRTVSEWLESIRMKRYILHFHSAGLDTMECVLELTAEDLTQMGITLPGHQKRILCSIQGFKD
Protocol: as §1

CaMKIIα(h) = target: T4, CaMKIIα(h) (Homo sapiens, UniProt Q9UQM7)
T4 construct: purchased Eurofins (KinaseProfiler)
T4 sequence (Q9UQM7 whole entry): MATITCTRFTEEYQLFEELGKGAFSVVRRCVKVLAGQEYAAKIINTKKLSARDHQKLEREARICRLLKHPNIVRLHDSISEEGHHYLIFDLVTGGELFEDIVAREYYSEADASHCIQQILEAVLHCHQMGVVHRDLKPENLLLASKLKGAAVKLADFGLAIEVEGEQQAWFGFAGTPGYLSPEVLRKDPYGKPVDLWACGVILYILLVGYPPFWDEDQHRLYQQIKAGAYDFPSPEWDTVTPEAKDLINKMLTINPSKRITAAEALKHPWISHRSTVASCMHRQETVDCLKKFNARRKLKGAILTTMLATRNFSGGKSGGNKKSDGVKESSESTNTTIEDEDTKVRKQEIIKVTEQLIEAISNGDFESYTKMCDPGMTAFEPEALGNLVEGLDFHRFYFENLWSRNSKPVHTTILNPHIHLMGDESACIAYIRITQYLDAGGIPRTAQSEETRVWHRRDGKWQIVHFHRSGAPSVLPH
Protocol: as §1

Yes(h) = target: T5, Yes(h) (Homo sapiens, UniProt P07947)
T5 construct: purchased Eurofins (KinaseProfiler)
T5 sequence (P07947 whole entry): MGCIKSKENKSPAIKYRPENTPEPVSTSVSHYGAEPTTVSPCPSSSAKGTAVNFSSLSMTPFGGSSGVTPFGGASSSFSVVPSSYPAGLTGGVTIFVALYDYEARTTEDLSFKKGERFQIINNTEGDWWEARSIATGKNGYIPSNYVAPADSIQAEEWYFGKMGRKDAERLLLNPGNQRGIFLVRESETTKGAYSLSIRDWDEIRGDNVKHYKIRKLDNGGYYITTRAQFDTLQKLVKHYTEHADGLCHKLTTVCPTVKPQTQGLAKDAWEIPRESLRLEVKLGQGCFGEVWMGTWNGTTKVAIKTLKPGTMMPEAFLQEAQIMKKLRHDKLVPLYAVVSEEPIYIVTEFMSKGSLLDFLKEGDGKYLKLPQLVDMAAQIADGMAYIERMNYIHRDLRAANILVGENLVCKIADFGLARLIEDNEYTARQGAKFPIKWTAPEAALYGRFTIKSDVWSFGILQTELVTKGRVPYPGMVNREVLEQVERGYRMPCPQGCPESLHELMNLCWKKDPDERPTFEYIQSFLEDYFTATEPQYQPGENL
Protocol: as §1

Fgr(h) = target: T6, Fgr(h) (Homo sapiens, UniProt P09769)
T6 construct: purchased Eurofins (KinaseProfiler)
T6 sequence (P09769 whole entry): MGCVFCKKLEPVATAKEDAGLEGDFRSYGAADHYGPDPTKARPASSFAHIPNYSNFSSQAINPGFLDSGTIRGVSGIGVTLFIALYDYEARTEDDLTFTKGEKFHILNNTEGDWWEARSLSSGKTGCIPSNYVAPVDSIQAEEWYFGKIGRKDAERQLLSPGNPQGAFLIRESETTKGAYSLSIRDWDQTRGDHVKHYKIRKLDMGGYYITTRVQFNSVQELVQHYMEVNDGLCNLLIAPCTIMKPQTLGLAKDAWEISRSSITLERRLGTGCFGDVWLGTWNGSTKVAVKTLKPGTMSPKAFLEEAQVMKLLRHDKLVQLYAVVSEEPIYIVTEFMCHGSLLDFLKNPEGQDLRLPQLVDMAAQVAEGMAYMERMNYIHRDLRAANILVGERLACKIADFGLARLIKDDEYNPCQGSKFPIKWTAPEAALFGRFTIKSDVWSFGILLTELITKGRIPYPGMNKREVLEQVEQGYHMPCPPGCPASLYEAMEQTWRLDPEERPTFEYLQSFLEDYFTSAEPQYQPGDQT
Protocol: as §1

STK32A(h) = target: T7, STK32A(h) (Homo sapiens, UniProt Q8WU08)
T7 construct: purchased Eurofins (KinaseProfiler)
T7 sequence (Q8WU08 whole entry): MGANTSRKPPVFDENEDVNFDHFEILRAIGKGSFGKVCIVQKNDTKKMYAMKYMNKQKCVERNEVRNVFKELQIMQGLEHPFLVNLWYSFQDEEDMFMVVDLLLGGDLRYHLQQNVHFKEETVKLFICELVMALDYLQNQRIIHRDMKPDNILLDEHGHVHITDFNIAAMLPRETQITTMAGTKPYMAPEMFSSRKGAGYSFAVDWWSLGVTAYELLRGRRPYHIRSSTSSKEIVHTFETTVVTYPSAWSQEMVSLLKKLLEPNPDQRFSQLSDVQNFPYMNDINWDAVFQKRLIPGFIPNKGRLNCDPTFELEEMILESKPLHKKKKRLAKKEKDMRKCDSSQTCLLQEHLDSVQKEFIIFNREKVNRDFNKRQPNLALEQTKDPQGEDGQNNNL
Protocol: as §1

MAK(h) = target: T8, MAK(h) (Homo sapiens, UniProt P20794)
T8 construct: purchased Eurofins (KinaseProfiler)
T8 sequence (P20794 1-623): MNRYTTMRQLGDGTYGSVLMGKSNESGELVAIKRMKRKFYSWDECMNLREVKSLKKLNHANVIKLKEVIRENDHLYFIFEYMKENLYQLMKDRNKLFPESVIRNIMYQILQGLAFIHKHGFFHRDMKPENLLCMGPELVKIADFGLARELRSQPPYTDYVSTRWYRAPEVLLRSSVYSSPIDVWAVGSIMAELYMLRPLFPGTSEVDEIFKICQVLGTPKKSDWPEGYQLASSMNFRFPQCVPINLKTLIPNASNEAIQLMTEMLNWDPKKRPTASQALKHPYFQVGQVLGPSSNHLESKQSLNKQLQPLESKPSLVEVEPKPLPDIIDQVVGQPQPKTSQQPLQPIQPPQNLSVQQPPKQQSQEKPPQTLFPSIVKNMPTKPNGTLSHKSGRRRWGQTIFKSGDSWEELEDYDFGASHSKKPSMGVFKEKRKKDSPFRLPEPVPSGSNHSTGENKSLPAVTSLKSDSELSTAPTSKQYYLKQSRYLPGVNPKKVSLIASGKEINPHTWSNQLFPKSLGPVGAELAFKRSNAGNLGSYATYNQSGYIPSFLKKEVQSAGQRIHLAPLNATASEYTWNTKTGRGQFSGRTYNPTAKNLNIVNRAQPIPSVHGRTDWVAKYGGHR
Protocol: as §1

ALK4(h) = target: T9, ALK4(h) (Homo sapiens, UniProt P36896)
T9 construct: purchased Eurofins (KinaseProfiler)
T9 sequence (P36896 24-505): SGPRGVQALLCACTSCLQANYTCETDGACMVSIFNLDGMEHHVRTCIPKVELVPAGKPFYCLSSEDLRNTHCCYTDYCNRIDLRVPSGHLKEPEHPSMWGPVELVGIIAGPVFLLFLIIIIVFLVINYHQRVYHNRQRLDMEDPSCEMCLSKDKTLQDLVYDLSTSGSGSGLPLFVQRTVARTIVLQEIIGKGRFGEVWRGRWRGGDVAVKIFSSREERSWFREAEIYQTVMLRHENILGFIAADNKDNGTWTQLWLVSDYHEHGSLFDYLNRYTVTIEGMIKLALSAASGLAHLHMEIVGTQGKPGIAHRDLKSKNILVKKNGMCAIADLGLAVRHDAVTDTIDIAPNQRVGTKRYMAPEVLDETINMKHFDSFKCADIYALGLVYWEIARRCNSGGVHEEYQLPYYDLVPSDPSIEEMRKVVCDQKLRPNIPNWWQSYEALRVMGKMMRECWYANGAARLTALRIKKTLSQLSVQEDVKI
Protocol: as §1

T1 sequence (Q9UK32 whole entry): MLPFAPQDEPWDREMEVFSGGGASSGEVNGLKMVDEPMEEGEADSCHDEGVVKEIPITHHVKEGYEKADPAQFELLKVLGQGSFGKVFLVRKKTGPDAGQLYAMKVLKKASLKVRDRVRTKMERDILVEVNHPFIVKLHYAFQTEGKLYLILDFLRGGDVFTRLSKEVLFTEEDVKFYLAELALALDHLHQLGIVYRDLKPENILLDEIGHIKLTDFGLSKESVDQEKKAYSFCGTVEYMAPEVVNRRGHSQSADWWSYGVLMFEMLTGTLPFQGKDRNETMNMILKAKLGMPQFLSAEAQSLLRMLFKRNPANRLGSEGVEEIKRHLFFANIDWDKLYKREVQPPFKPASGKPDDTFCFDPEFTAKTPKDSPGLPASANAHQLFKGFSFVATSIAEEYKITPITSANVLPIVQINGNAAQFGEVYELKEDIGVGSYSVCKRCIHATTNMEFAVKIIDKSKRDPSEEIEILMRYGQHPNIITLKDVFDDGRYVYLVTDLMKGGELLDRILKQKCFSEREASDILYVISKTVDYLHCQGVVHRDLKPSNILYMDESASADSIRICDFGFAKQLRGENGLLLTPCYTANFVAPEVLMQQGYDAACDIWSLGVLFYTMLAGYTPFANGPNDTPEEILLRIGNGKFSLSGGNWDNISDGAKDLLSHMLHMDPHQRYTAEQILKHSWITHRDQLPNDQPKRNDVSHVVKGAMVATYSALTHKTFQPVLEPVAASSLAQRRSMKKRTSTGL

**Q.** What does the source list for `COc1cc(OC)c(Cl)c(-c2ccc3c(NC(=O)c4ccc(N5CCNC(C)(C)C5)cc4)n[nH]c3n2)c1Cl` [3D185]?
**A.** inhibition at 0.01 µM (Rsk4(h); 10 nM): 0%; inhibition at 0.1 µM (Rsk4(h); 100 nM): 6%; inhibition at 1 µM (Rsk4(h); 1000 nM): 19%; inhibition at 0.01 µM (mTOR/FKBP12(h); 10 nM): 1%; inhibition at 0.1 µM (mTOR/FKBP12(h); 100 nM): 0%; inhibition at 1 µM (mTOR/FKBP12(h); 1000 nM): 2%; inhibition at 0.01 µM (EphA1(h); 10 nM): 0%; inhibition at 0.1 µM (EphA1(h); 100 nM): -14%; inhibition at 1 µM (EphA1(h); 1000 nM): -6%; inhibition at 0.01 µM (CaMKIIα(h); 10 nM): -9%; inhibition at 0.1 µM (CaMKIIα(h); 100 nM): 2%; inhibition at 1 µM (CaMKIIα(h); 1000 nM): -15%; inhibition at 0.01 µM (Yes(h); 10 nM): 10%; inhibition at 0.1 µM (Yes(h); 100 nM): 66%; inhibition at 1 µM (Yes(h); 1000 nM): 97%; inhibition at 0.01 µM (Fgr(h); 10 nM): 11%; inhibition at 0.1 µM (Fgr(h); 100 nM): 44%; inhibition at 1 µM (Fgr(h); 1000 nM): 89%; inhibition at 0.01 µM (STK32A(h); 10 nM): -5%; inhibition at 0.1 µM (STK32A(h); 100 nM): 0%; inhibition at 1 µM (STK32A(h); 1000 nM): 2%; inhibition at 0.01 µM (MAK(h); 10 nM): -1%; inhibition at 0.1 µM (MAK(h); 100 nM): -9%; inhibition at 1 µM (MAK(h); 1000 nM): -17%; inhibition at 0.01 µM (ALK4(h); 10 nM): -4%; inhibition at 0.1 µM (ALK4(h); 100 nM): -7%; inhibition at 1 µM (ALK4(h); 1000 nM): 5%
